Measurements reported in ChEMBL document CHEMBL5291721, “A preclinical secondary pharmacology resource illuminates target-adverse drug reaction associations of marketed drugs” (Nat Commun, 2023).

Legend:
B2 bradykinin receptor = molecular target: T1, B2 bradykinin receptor (Homo sapiens, UniProt P30411)
T1 sequence (P30411 whole entry): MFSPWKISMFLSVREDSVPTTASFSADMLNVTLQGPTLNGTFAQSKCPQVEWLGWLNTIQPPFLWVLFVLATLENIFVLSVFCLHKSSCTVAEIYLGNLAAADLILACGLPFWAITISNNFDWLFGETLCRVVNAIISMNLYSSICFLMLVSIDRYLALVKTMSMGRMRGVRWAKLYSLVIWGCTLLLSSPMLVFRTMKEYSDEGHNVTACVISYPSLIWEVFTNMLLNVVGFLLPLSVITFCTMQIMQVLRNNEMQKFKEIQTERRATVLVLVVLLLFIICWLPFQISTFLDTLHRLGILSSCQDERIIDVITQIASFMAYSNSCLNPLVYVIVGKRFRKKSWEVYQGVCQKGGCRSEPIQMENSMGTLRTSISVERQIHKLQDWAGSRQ

D(1A) dopamine receptor = D(1A) dopamine receptor (Homo sapiens, UniProt P21728); type: functional, cell-based
[1] = molecular target: T2, 5-hydroxytryptamine receptor 3A (Homo sapiens, UniProt P46098); type: functional
T2 sequence (P46098 whole entry): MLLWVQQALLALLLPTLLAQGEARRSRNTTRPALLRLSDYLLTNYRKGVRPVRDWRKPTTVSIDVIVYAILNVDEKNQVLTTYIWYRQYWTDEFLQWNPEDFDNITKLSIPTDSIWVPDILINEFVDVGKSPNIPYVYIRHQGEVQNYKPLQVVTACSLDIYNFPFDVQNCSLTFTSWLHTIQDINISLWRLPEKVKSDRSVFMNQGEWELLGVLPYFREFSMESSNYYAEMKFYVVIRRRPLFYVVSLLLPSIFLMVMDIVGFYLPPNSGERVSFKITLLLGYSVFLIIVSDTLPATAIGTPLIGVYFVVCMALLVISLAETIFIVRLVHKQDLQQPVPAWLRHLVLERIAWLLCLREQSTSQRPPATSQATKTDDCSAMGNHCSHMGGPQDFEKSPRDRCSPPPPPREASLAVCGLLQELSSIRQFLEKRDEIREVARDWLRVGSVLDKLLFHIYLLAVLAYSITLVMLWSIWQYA

[2] = molecular target: T3, Muscarinic acetylcholine receptor M1 (Homo sapiens, UniProt P11229); type: functional, cell-based
T3 sequence (P11229 whole entry): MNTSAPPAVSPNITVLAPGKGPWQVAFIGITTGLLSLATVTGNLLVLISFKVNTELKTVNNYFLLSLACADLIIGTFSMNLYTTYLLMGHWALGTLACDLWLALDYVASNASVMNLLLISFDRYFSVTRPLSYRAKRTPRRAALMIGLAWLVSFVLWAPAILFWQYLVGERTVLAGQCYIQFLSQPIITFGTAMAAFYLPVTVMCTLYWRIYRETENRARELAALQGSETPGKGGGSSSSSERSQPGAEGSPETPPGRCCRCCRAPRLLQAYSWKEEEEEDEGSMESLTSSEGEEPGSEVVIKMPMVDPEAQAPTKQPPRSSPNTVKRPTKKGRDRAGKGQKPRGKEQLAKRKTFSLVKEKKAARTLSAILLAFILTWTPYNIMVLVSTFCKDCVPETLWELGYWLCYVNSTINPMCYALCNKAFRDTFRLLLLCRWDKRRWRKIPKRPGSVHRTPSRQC

Endothelin-1 receptor = molecular target: T4, Endothelin-1 receptor (Homo sapiens, UniProt P25101)
T4 sequence (P25101 whole entry): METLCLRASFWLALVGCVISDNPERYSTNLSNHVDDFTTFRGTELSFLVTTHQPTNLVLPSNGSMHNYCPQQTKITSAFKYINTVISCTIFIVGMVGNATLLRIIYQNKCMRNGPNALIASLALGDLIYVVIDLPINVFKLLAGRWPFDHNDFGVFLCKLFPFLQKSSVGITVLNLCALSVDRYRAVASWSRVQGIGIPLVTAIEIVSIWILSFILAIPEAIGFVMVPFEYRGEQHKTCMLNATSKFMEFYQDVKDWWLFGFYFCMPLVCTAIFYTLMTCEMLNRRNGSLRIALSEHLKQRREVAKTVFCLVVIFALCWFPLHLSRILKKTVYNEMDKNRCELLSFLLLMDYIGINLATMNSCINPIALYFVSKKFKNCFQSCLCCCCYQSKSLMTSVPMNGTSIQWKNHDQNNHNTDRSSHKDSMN

Vasopressin V2 receptor = Vasopressin V2 receptor (Homo sapiens, UniProt P30518)
Estrogen receptor = molecular target: T5, Estrogen receptor (Homo sapiens, UniProt P03372)
T5 sequence (P03372 whole entry): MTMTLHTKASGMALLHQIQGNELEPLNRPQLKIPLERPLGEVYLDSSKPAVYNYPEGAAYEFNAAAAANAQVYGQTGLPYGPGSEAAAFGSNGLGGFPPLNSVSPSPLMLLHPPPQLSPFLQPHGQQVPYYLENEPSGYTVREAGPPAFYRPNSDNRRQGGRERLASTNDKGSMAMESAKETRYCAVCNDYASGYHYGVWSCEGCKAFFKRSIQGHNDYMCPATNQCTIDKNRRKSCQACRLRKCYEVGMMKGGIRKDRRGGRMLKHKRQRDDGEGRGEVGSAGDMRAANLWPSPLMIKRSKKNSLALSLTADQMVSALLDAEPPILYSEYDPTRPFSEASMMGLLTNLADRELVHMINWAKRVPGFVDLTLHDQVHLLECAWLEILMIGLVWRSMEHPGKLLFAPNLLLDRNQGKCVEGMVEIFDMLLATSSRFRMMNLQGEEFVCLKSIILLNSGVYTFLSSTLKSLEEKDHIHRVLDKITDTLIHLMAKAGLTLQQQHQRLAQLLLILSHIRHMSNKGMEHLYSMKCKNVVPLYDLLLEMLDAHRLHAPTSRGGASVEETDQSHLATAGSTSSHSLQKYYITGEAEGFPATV

Mu-type opioid receptor = Mu-type opioid receptor (Homo sapiens, UniProt P35372)
[3] = molecular target: Gamma-aminobutyric acid receptor subunit alpha-1 (Rattus norvegicus, UniProt P62813); type: functional
Also: assay procedure not described here.

Chain of Vasopressin V2 receptor (P30518 whole entry): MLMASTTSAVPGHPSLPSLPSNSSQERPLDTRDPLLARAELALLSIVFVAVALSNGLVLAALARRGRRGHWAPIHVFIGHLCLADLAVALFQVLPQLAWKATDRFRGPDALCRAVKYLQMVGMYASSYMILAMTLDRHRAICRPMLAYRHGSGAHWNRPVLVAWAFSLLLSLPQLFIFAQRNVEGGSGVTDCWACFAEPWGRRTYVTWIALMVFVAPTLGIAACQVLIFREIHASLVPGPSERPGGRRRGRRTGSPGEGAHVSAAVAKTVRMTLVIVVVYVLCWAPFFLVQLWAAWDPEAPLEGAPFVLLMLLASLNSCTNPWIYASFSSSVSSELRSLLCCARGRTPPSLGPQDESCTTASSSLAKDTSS
Chain of D(1A) dopamine receptor (P21728 whole entry): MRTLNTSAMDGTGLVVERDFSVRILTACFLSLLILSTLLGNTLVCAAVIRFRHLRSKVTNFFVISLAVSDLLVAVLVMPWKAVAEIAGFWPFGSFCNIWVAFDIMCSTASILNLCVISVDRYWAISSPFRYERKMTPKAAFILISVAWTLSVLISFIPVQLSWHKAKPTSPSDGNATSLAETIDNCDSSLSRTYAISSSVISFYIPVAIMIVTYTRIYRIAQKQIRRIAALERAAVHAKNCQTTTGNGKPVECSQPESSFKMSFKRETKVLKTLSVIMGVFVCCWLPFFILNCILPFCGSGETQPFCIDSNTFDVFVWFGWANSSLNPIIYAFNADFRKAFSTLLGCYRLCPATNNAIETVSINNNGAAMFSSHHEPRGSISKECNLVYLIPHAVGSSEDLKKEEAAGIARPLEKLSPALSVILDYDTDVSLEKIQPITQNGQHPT
Chain of Mu-type opioid receptor (P35372 whole entry): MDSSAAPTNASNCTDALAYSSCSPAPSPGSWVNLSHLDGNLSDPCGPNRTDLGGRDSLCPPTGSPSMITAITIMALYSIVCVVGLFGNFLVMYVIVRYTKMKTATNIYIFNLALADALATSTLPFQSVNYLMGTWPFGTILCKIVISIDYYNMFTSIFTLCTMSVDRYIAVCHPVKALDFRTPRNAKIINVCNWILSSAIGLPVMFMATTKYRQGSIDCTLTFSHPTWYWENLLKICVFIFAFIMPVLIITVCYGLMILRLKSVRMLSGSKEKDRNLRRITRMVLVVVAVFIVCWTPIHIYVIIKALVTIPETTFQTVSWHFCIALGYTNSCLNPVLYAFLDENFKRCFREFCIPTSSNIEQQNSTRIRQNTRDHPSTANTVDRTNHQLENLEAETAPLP
Chain of Gamma-aminobutyric acid receptor subunit alpha-1 (P62813 whole entry): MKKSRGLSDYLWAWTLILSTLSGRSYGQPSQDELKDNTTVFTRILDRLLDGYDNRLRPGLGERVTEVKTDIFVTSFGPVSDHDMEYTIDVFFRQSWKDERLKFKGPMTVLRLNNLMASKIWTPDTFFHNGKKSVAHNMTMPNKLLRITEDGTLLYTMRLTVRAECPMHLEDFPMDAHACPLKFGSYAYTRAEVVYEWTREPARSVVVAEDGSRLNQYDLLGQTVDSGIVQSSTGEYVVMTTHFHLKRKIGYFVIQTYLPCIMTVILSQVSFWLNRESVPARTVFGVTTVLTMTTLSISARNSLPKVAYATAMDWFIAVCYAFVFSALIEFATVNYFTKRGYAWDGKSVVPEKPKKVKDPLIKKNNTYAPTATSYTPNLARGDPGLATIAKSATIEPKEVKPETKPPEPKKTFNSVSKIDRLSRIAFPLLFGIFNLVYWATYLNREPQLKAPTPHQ

Compound `CCCc1nc2c(C)cc(-c3nc4ccccc4n3C)cc2n1Cc1ccc(-c2ccccc2C(=O)O)cc1` has an AC50 (B2 bradykinin receptor) of over 30 µM, an AC50 (D(1A) dopamine receptor) of over 30 µM and an AC50 [1] of over 30 µM. The AC50 [2] was 17.6 µM, the AC50 (Endothelin-1 receptor) was over 30 µM and the AC50 (Vasopressin V2 receptor) was over 30 µM. For the same compound, the AC50 (Estrogen receptor) was over 30 µM, the AC50 (Mu-type opioid receptor) was 10.8 µM and the AC50 [3] was over 30 µM.
`C[N+](C)(C)CCOP(=O)(O)OP(=O)([O-])OC[C@H]1O[C@@H](n2ccc(N)nc2=O)[C@H](O)[C@@H]1O` [CITICOLINE] was tested, and the AC50 (D(1A) dopamine receptor) was over 30 µM, the AC50 [1] was over 30 µM and the AC50 [2] was over 30 µM. The AC50 (Estrogen receptor) was over 30 µM and the AC50 [3] was over 30 µM.
`O=C(O)Cc1ccccc1Oc1ccc(Cl)cc1Cl` [FENCLOFENAC] gave an AC50 (B2 bradykinin receptor) of over 30 µM, an AC50 (D(1A) dopamine receptor) of over 30 µM and an AC50 [1] of over 30 µM. The AC50 [2] was over 30 µM, the AC50 (Endothelin-1 receptor) was over 30 µM and the AC50 (Vasopressin V2 receptor) was over 30 µM. For the same compound, the AC50 (Estrogen receptor) was over 30 µM, the AC50 (Mu-type opioid receptor) was over 30 µM and the AC50 [3] was over 10 µM.
`COc1ccccc1OC1(C)OC(=O)c2ccccc2O1` (stereo not given) [GUAIMESAL] gave an AC50 (B2 bradykinin receptor) of over 30 µM, an AC50 [2] of over 30 µM and an AC50 (Endothelin-1 receptor) of over 30 µM. The AC50 (Vasopressin V2 receptor) was over 30 µM and the AC50 (Estrogen receptor) was over 30 µM.
`COc1cc(C(C)=O)ccc1OCCCN1CCC(c2noc3cc(F)ccc23)CC1` [ILOPERIDONE] was tested, and the AC50 (D(1A) dopamine receptor) was over 30 µM, the AC50 [1] was over 30 µM and the AC50 [2] was over 10 µM. The AC50 (Endothelin-1 receptor) was over 30 µM, the AC50 (Estrogen receptor) was over 30 µM and the AC50 (Mu-type opioid receptor) was 10 µM. It also gave an AC50 [3] of 12.9 µM.
In the case of `Cc1ccsc1C(=CCCN1CCC[C@@H](C(=O)O)C1)c1sccc1C` [TIAGABINE], the AC50 [2] is reported as over 30 µM and the AC50 (Estrogen receptor) is reported as over 30 µM.
Work on `O=C1Cc2cc(CCN3CCN(c4nsc5ccccc45)CC3)c(Cl)cc2N1` [ZIPRASIDONE] yielded an AC50 (B2 bradykinin receptor) of over 30 µM, an AC50 [1] of over 10 µM and an AC50 [2] of over 30 µM. It also gave an AC50 (Endothelin-1 receptor) of over 30 µM, an AC50 (Vasopressin V2 receptor) of over 30 µM and an AC50 (Estrogen receptor) of over 30 µM. It also gave an AC50 (Mu-type opioid receptor) of over 30 µM and an AC50 [3] of over 10 µM.
